Key:
Akt1 mRNA = assay: siRNA inhibition of Akt1 mRNA in MDA435 breast cancer cells (Example 1, FIG. 2); assay type: cell-based; settings: presence or absence of serum, Akt1 message normalized to average of HPRT and GUSB
Description: (§1) For each transfection mixture (which are examples of compositions in accordance with the present invention), a lipitoid or lipitoid/cholesteroid combination delivery vehicle was prepared to a working concentration of 0.5 mM in water and mixed to yield a uniform solution. The siRNA was prepared to a working concentration of 20 μM in buffer supplied with the siRNAs. In this example, the siRNAs were for Akt1 mRNA and had the sequence […] (SEQ ID No: 1) with two 2′ O-methyl UU (RNA) nucleotide 3′-overhangs and phosphodiester links throughout (available from Integrated DNA Technologies). The siRNA was diluted in OptiMEM™ (Gibco/BRL), in a microfuge tube, to 1 μM, or approximately 15 μg oligo/ml of OptiMEM™. In a separate microfuge tube, vehicle, typically in the amount of about 3.75 nmol vehicle/100 pmol siRNA, was diluted into the same volume of OptiMEM™ used to dilute the siRNA. […] Note that the exact ratio of siRNA to vehicle must be determined empirically for each cell type, but generally is about this amount. The diluted siRNA was immediately added to the diluted vehicle and mixed by pipetting up and down. The mixture was allowed to incubate at room temperature for 10 minutes.
Cells were plated on tissue culture dishes one day in advance of transfection, in growth media with serum, to yield a density at transfection of 60-90%. […]

firefly luciferase = assay: Loss of luciferase activity after siRNA transfection, Promega Dual-Luciferase Reporter Assay (Example 2, FIG. 3); assay type: cell-based; settings: MDA231 stably expressing luciferase, control non-transfected cell line
Description: as §1
Cells were plated on tissue culture dishes one day in advance of transfection, in growth media with serum, to yield a density at transfection of 60-90%. The siRNA/vehicle mixture was added to the cells immediately after mixing and incubation, to a final concentration of 50-100 nM siRNA in half the normal growth medium volume. Cells were incubated with the transfection mixture at 37° C., 5% CO2 for 4-24 hours. […]
Transfection mixtures were prepared using siRNA against firefly luciferase (CGUACGCGGAAUACUUCGA (SEQ ID No: 2); from Elbashir et al., Nature, 411, 494 (2001)) and several different delivery vehicles in accordance with the present invention as described herein (L1, L2, L1/C1, L4 1L1/3C1) substantially as described in Example 1. Luciferase activity was quantified with the Promega Dual-Luciferase Reporter Assay System according to package directions. […]

Row | luciferase activity after transfection of siRNA against luciferase (firefly luciferase) | Substance | Akt1 expression after transfection of siRNA directed against Akt1 mRNA (Akt1 mRNA)
1 |  | NtdNhd(NaeNmpeNmpe)3 [Lipitoid L3] | loss of Akt1 expression
2 | substantially reduced | DMPE(NaeNiaNia)3 [Lipitoid L2] | loss of Akt1 expression
3 | substantially reduced | NddNol(NaeNmpeNmpe)3 [Lipitoid L4] | 
4 | substantially reduced | DMPE(NaeNmpeNmpe)3 [Lipitoid L1] | 
